According to publication PMC9127807, “Echinocandins Localized to the Target-Harboring Cell Surface Are Not Degraded but Those Entering the Vacuole Are” (ACS Chemical Biology, 2022):
Converted amounts (≈) assume the structure as drawn. Starred links: 1 amine or outer side, 2 acyl side, 3 side chain; linkers in the order of their positions; H or OH if unused. Positions of bridges follow the written chain, without caps; N, C: chain ends. Non-standard residues stand in square brackets, D forms with d. Residues, ends and D or L forms follow the SMILES beside them. *: point of attachment. X1 = O=C([C@@H](N[*:1])[C@H](O)[C@@H](O)c1ccc(OCc2cn(CCCNc3ccc([N+](=O)[O-])c4nonc34)nn2)cc1)[*:2]; Orn(4R-OH,5R-OCH2CH2NMe3+) = C[N+](C)(C)CCO[C@@H](N[*:3])[C@H](O)C[C@H](N[*:1])C(=O)[*:2]; pTerphenylCO(4''-OnC5H11) = CCCCCOc1ccc(-c2ccc(-c3ccc(C(=O)*)cc3)cc2)cc1; Orn(4R-OH,5R-OH) = O=C([C@H](C[C@@H](O)[C@@H](O)N[*:3])N[*:1])[*:2]; hTyr(3S-OH,4S-OH) = N[C@H](C(=O)O)[C@H](O)[C@@H](O)c1ccc(O)cc1; Pro(3S-OH,4S-Me) = C[C@H]1CN[C@H](C(=O)O)[C@H]1O; Hyp = O=C(O)[C@@H]1C[C@@H](O)CN1

Assays:
C. albicans ATCC 10231 = settings: strain D, echinocandin-susceptible; YPAD broth, 24 h, 30 °C, OD600 reduced by ≥75%
Procedure: (§1) Candida strains were streaked from glycerol stock onto YPAD agar plates and grown for 24 h at 30 °C. Colonies were suspended in 1 mL of PBS and diluted to an optical density of 2 × 10^–4 at 600 nm (OD600) in flat-bottom 96-well microplates (Corning) with YPAD broth containing dilutions of each tested compound at concentrations ranging from 64 to 0.008 μg/mL in twofold dilutions. Control wells with yeast cells but no drug and blank wells that contained only YPAD were prepared. MIC values (Table S2) were determined after 24 h at 30 °C by measuring the OD600 using a plate reader (Infinite M200 PRO, Tecan). MIC values were defined as the point at which the OD600 was reduced by ≥75% compared to the no-drug wells. Each concentration was tested in triplicate, and the results were confirmed by two independent sets of experiments.

C. albicans ATCC 24433 = settings: strain C, echinocandin-susceptible; YPAD broth, 24 h, 30 °C, OD600 reduced by ≥75%
Procedure: as §1

C. albicans ATCC 90028 = settings: strain E, echinocandin-susceptible; YPAD broth, 24 h, 30 °C, OD600 reduced by ≥75%
Procedure: as §1

[1] = system: C. albicans DPL1016 (DP-A15-10); settings: strain F, echinocandin resistant FKS mutation; YPAD broth, 24 h, 30 °C, OD600 reduced by ≥75%
Procedure: as §1

C. albicans SC5314 = settings: strain A, echinocandin-susceptible; YPAD broth, 24 h, 30 °C, OD600 reduced by ≥75%; triplicate, two independent experiments
Procedure: as §1

[2] = system: C. albicans T-2068 (DP-C42); settings: strain G, echinocandin resistant FKS mutation; YPAD broth, 24 h, 30 °C, OD600 reduced by ≥75%
Procedure: as §1

C. glabrata ATCC 2001 = settings: strain I, echinocandin-susceptible; YPAD broth, 24 h, 30 °C, OD600 reduced by ≥75%
Procedure: as §1

C. glabrata ATCC 66032 = settings: strain J, echinocandin-susceptible; YPAD broth, 24 h, 30 °C, OD600 reduced by ≥75%
Procedure: as §1

C. glabrata ATCC 90030 = settings: strain K, echinocandin-susceptible; YPAD broth, 24 h, 30 °C, OD600 reduced by ≥75%
Procedure: as §1

C. glabrata EF1620 = settings: strain H, echinocandin-susceptible; YPAD broth, 24 h, 30 °C, OD600 reduced by ≥75%
Procedure: as §1

C. glabrata T-192 (1775) = settings: strain L, echinocandin-susceptible; YPAD broth, 24 h, 30 °C, OD600 reduced by ≥75%
Procedure: as §1

C. glabrata TGL00275 = settings: strain M, echinocandin resistant FKS mutation; YPAD broth, 24 h, 30 °C, OD600 reduced by ≥75%
Procedure: as §1

C. glabrata TGL00277 = settings: strain N, echinocandin resistant FKS mutation; YPAD broth, 24 h, 30 °C, OD600 reduced by ≥75%
Procedure: as §1

C. albicans SN152 = experiment: MIC broth double-dilution assay; type: cell-based, Candida albicans; settings: strain B, echinocandin-susceptible; YPAD broth, 24 h, 30 °C, OD600 reduced by ≥75%
Procedure: as §1, with “Colonies” for “Candida strains were streaked from glycerol stock onto YPAD agar plates and grown for 24 h at 30 °C. Colonies”

[3] = incubation in human plasma for 44 h at 37 °C; cited from earlier work
Excerpt: Intending to develop echinocandins with improved chemical stability under physiological conditions, Cidara Therapeutics developed rezafungin (RZF), a novel ANF derivative with distinctive pharmacokinetic and pharmacodynamic profiles, which entered phase III trials in October 2018 (Figure 1).[18]−[21] […] Instead of the daily intravenous administration regime used for the other three echinocandins, RZF can be administered intravenous ...

C. albicans SC5314 cells = settings: incubated with cells or lysates of C. albicans SC5314, 24 h, regardless of the media used (PBS, YPAD)
Procedure: C. albicans SC5314 cells were streaked from glycerol stocks onto YPAD agar plates and grown for 24 h at 30 °C. Colonies were grown in tubes in 3 mL of YPAD broth for 24 h at 30 °C with shaking. Cultures were diluted 1:50 and incubated in 5 mL of YPAD broth for 3 h at 30 °C with shaking until log-phase growth was observed. Cultures were then centrifuged (4000 rpm, 3 min), washed with PBS buffer, and resuspended in 1 mL of PBS buffer or YPAD. Cells were incubated with TMR-based probes (1 or 3) at a final concentration of 10 μM at 30 °C with shaking in the dark for 24 h. After washing three times with PBS, cells were resuspended in 75 μL of TNE buffer (10 mM Tris, 100 mM NaCl, and 1 mM ethylenediaminetetraacetic acid, pH 8.0) in a 1.5 mL Eppendorf tube, and 0.5 mm diameter beads were added to the yeast solution. The mixture was agitated on a vortex at maximum speed for 5 min. Next, 200 μL of 2% Triton X-100 in TNE buffer (v/v) was added to the agitated solution, and then the mixture was sonicated for 15 min. To clarify the yeast lysate, the mixture was centrifuged twice (16 000g, 20 min), and the supernatant was removed and filtered using a 0.22 μm syringe filter. The samples were analyzed using analytical reverse-phase HPLC at a 550 nm wavelength. HPLC conditions: mobile phase: acetonitrile in H2O (containing 0.1% trifluoroacetic acid (v/v)), gradient from 10 to 90%; flow rate: 1 mL/min; absorbance wavelength: 550 nm. Each sample was tested in two independent sets of experiments. The percentages of intact echinocandin were determined using the area calculation function available in the Hitachi Primaide Software and are presented as means (two replicates) ± standard deviation (SD).

| Structure (SMILES) | MIC (C. albicans ATCC 10231) | MIC (C. albicans ATCC 24433) | MIC (C. albicans ATCC 90028) | MIC [1] | MIC (C. albicans SC5314) | MIC [2] | MIC (C. glabrata ATCC 2001) | MIC (C. glabrata ATCC 66032) | MIC (C. glabrata ATCC 90030) | MIC (C. glabrata EF1620) | MIC (C. glabrata T-192 (1775)) | MIC (C. glabrata TGL00275) | MIC (C. glabrata TGL00277) | MIC (C. albicans SN152) | percent of intact drug [3] | decomposition (C. albicans SC5314 cells) |
| --- | --- | --- | --- | --- | --- | --- | --- | --- | --- | --- | --- | --- | --- | --- | --- | --- |
| CCCCCOc1ccc(-c2ccc(-c3ccc(C(=O)N[C@H]4C[C@@H](O)[C@@H](O)NC(=O)[C@@H]5[C@@H](O)[C@@H](C)CN5C(=O)[C@H]([C@@H](C)O)NC(=O)[C@H]([C@H](O)[C@@H](O)c5ccc(O)cc5)NC(=O)[C@@H]5C[C@@H](O)CN5C(=O)[C@H]([C@@H](C)O)NC4=O)cc3)cc2)cc1 [ANF, anidulafungin, reference compound] ({pTerphenylCO(4''-OnC5H11)}-[Orn(4R-OH,5R-OH)]T[Hyp][hTyr(3S-OH,4S-OH)]T[Pro(3S-OH,4S-Me)]; lactam 1-C) | 0.016 µg/mL (≈ 0.014 µM) | 0.008 µg/mL (≈ 0.00702 µM) | 0.016 µg/mL (≈ 0.014 µM) | 4 µg/mL (≈ 3.51 µM) | 0.008 µg/mL (≈ 0.00702 µM) | 4 µg/mL (≈ 3.51 µM) | 0.008 µg/mL (≈ 0.00702 µM) | 0.016 µg/mL (≈ 0.014 µM) | 0.016 µg/mL (≈ 0.014 µM) | 0.008 µg/mL (≈ 0.00702 µM) | 0.008 µg/mL (≈ 0.00702 µM) | 4 µg/mL (≈ 3.51 µM) | > 64 µg/mL | 0.008 µg/mL (≈ 0.00702 µM) | 7% | – |
| CC[C@H](C)C[C@H](C)CCCCCCCCC(=O)N[C@H]1C[C@@H](O)[C@@H](NCCN)NC(=O)[C@@H]2[C@@H](O)CCN2C(=O)[C@H]([C@H](O)CCN)NC(=O)[C@H]([C@H](O)[C@@H](O)c2ccc(O)cc2)NC(=O)[C@@H]2C[C@@H](O)CN2C(=O)[C@H]([C@@H](C)O)NC1=O [CSF, caspofungin, reference compound] | 0.063 µg/mL (≈ 0.0576 µM) | 0.031 µg/mL (≈ 0.0284 µM) | 0.063 µg/mL (≈ 0.0576 µM) | 32 µg/mL (≈ 29.3 µM) | 0.031 µg/mL (≈ 0.0284 µM) | 16 µg/mL (≈ 14.6 µM) | 0.063 µg/mL (≈ 0.0576 µM) | 0.063 µg/mL (≈ 0.0576 µM) | 0.125 µg/mL (≈ 0.114 µM) | 0.031 µg/mL (≈ 0.0284 µM) | 0.016 µg/mL (≈ 0.0146 µM) | 16 µg/mL (≈ 14.6 µM) | > 64 µg/mL | 0.031 µg/mL (≈ 0.0284 µM) | – | – |
| CC[C@H](C)C[C@H](C)CCCCCCCCC(=O)N[C@H]1C[C@@H](O)[C@@H](NCCN)NC(=O)[C@@H]2[C@@H](O)CCN2C(=O)[C@H]([C@H](O)CCN)NC(=O)[C@H]([C@H](O)[C@@H](O)c2ccc(OCc3cn(CCCNc4ccc([N+](=O)[O-])c5nonc45)nn3)cc2)NC(=O)[C@@H]2C[C@@H](O)CN2C(=O)[C@H]([C@@H](C)O)NC1=O [Probe 2] | 2 µg/mL (≈ 1.43 µM) | 2 µg/mL (≈ 1.43 µM) | 2 µg/mL (≈ 1.43 µM) | > 64 µg/mL | 1 µg/mL (≈ 0.717 µM) | 64 µg/mL (≈ 45.9 µM) | 2 µg/mL (≈ 1.43 µM) | 4 µg/mL (≈ 2.87 µM) | 4 µg/mL (≈ 2.87 µM) | 4 µg/mL (≈ 2.87 µM) | 2 µg/mL (≈ 1.43 µM) | > 64 µg/mL | > 64 µg/mL | 1 µg/mL (≈ 0.717 µM) | – | – |
| CCCCCOc1ccc(-c2ccc(-c3ccc(C(=O)N[C@H]4C[C@@H](O)[C@@H](OCCc5cn(CCCNC(=O)c6ccc(-c7c8ccc(=[N+](C)C)cc-8oc8cc(N(C)C)ccc78)c(C(=O)[O-])c6)nn5)NC(=O)[C@@H]5[C@@H](O)[C@@H](C)CN5C(=O)[C@H]([C@@H](C)O)NC(=O)[C@H]([C@H](O)[C@@H](O)c5ccc(O)cc5)NC(=O)[C@@H]5C[C@@H](O)CN5C(=O)[C@H]([C@@H](C)O)NC4=O)cc3)cc2)cc1 [Probe 3] | – | – | – | – | – | – | – | – | – | – | – | – | – | – | – | no significant decomposition |
| CCCCCOc1ccc(-c2ccc(-c3ccc(C(=O)N[C@H]4C[C@@H](O)[C@@H](OCCc5cn(CCCNc6ccc([N+](=O)[O-])c7nonc67)nn5)NC(=O)[C@@H]5[C@@H](O)[C@@H](C)CN5C(=O)[C@H]([C@@H](C)O)NC(=O)[C@H]([C@H](O)[C@@H](O)c5ccc(O)cc5)NC(=O)[C@@H]5C[C@@H](O)CN5C(=O)[C@H]([C@@H](C)O)NC4=O)cc3)cc2)cc1 [Probe 4] | 0.25 µg/mL (≈ 0.172 µM) | 0.25 µg/mL (≈ 0.172 µM) | 0.5 µg/mL (≈ 0.344 µM) | > 64 µg/mL | 0.25 µg/mL (≈ 0.172 µM) | > 64 µg/mL | 0.5 µg/mL (≈ 0.344 µM) | 0.5 µg/mL (≈ 0.344 µM) | 0.5 µg/mL (≈ 0.344 µM) | 0.5 µg/mL (≈ 0.344 µM) | 0.25 µg/mL (≈ 0.172 µM) | > 64 µg/mL | > 64 µg/mL | 0.25 µg/mL (≈ 0.172 µM) | – | – |
| CCCCCOc1ccc(-c2ccc(-c3ccc(C(=O)N[C@H]4C[C@@H](O)[C@@H](OCC[N+](C)(C)C)NC(=O)[C@@H]5[C@@H](O)[C@@H](C)CN5C(=O)[C@H]([C@@H](C)O)NC(=O)[C@H]([C@H](O)[C@@H](O)c5ccc(OCc6cn(CCCNc7ccc([N+](=O)[O-])c8nonc78)nn6)cc5)NC(=O)[C@@H]5C[C@@H](O)CN5C(=O)[C@H]([C@@H](C)O)NC4=O)cc3)cc2)cc1 [Probe 6] ({pTerphenylCO(4''-OnC5H11)}-[Orn(4R-OH,5R-OCH2CH2NMe3+)]T[Hyp][X1]T[Pro(3S-OH,4S-Me)]; lactam 1-C) | 0.5 µg/mL | 0.5 µg/mL | 0.5 µg/mL | > 64 µg/mL | 0.5 µg/mL | > 64 µg/mL | 1 µg/mL | 1 µg/mL | 1 µg/mL | 0.5 µg/mL | 0.5 µg/mL | > 64 µg/mL | > 64 µg/mL | 0.5 µg/mL | – | – |
| CCCCCOc1ccc(-c2ccc(-c3ccc(C(=O)N[C@H]4C[C@@H](O)[C@@H](OCC[N+](C)(C)C)NC(=O)[C@@H]5[C@@H](O)[C@@H](C)CN5C(=O)[C@H]([C@@H](C)O)NC(=O)[C@H]([C@H](O)[C@@H](O)c5ccc(O)cc5)NC(=O)[C@@H]5C[C@@H](O)CN5C(=O)[C@H]([C@@H](C)O)NC4=O)cc3)cc2)cc1 [RZF, rezafungin, reference compound] ({pTerphenylCO(4''-OnC5H11)}-[Orn(4R-OH,5R-OCH2CH2NMe3+)]T[Hyp][hTyr(3S-OH,4S-OH)]T[Pro(3S-OH,4S-Me)]; lactam 1-C) | 0.063 µg/mL | 0.031 µg/mL | 0.031 µg/mL | 8 µg/mL | 0.016 µg/mL | 4 µg/mL | 0.063 µg/mL | 0.031 µg/mL | 0.031 µg/mL | 0.016 µg/mL | 0.016 µg/mL | 8 µg/mL | > 64 µg/mL | 0.031 µg/mL | 91% | – |
